Values joined by “and” are separate entries in the source; they are usually repeats but may differ in a detail not shown here. Identical values can stand only once. Toxic doses and inconclusive results are not listed. No stated cut-off is given here; in the data, active means T/C of 150% or more; inactive means T/C below 125%.
Tested on: L1210 leukemia ip in BDF1 mice, survival T/C
Assay: NCI In Vivo Anticancer Drug Screen. Data for tumor model L1210 Leukemia (intraperitoneal) in B6D2F1 (BDF1) mice
Conditions: endpoint: mean survival time, higher = longer survival
In short: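 Ratio derived from survival: compound-dosed mice over vehicle-dosed mice, all bearing a transplantable tumor.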

[1] = dose: 75.0 mg/kg/injection, schedule: Q04DX003 (ip), vehicle: saline
[2] = dose: 100.0 mg/kg/injection, schedule: Q04DX002 (ip), vehicle: Klucel (hydroxypropylcellulose) (HPC)
[3] = dose: 200.0 mg/kg/injection, schedule: Q04DX002 (ip), vehicle: Klucel (hydroxypropylcellulose) (HPC)
[4] = dose: 400.0 mg/kg/injection, schedule: Q04DX002 (ip), vehicle: Klucel (hydroxypropylcellulose) (HPC)
[5] = dose: 100.0 mg/kg/injection, schedule: Q01DX009 (ip), vehicle: Klucel (hydroxypropylcellulose) (HPC)
[6] = dose: 200.0 mg/kg/injection, schedule: Q01DX009 (ip), vehicle: Klucel (hydroxypropylcellulose) (HPC)
[7] = dose: 100.0 mg/kg/injection, schedule: Q01DX001 (ip), vehicle: carboxymethylcellulose (CMC)
[8] = dose: 200.0 mg/kg/injection, schedule: Q01DX001 (ip), vehicle: carboxymethylcellulose (CMC)
[9] = dose: 400.0 mg/kg/injection, schedule: Q01DX001 (ip), vehicle: carboxymethylcellulose (CMC)

Measured: T/C

O=c1[nH]nnc2nc[nH]c12
inactive: dose: 25.0 mg/kg/injection, schedule: Q01DX001 (ip), vehicle: steriod suspending solution 109 % of control | dose: 46.1 mg/kg/injection, schedule: Q01DX001 (ip), vehicle: steriod suspending solution 100 % of control | dose: 50.0 mg/kg/injection, schedule: Q01DX001 (ip), vehicle: steriod suspending solution 113 % of control | dose: 65.9 mg/kg/injection, schedule: Q01DX001 (ip), vehicle: steriod suspending solution 100 % of control | dose: 94.2 mg/kg/injection, schedule: Q01DX001 (ip), vehicle: steriod suspending solution 102 % of control | dose: 100.0 mg/kg/injection, schedule: Q01DX001 (ip), vehicle: steriod suspending solution 109 % of control | dose: 134.5 mg/kg/injection, schedule: Q01DX001 (ip), vehicle: steriod suspending solution 97 % of control | dose: 192.1 mg/kg/injection, schedule: Q01DX001 (ip), vehicle: steriod suspending solution 101 % of control | dose: 200.0 mg/kg/injection, schedule: Q01DX001 (ip), vehicle: steriod suspending solution 100 % of control | dose: 274.4 mg/kg/injection, schedule: Q01DX001 (ip), vehicle: steriod suspending solution 103 % of control | dose: 392.0 mg/kg/injection, schedule: Q01DX001 (ip), vehicle: steriod suspending solution 108 % of control | dose: 400.0 mg/kg/injection, schedule: Q01DX001 (ip), vehicle: steriod suspending solution 105 % of control | dose: 560.0 mg/kg/injection, schedule: Q01DX001 (ip), vehicle: steriod suspending solution 95 % of control | dose: 800.0 mg/kg/injection, schedule: Q01DX001 (ip), vehicle: steriod suspending solution 96 % of control

Cc1cc(Cl)c2ccccc2n1
inactive: dose: 37.5 mg/kg/injection, schedule: Q04DX003 (ip), vehicle: saline 103 % of control | dose: 75.0 mg/kg/injection, schedule: Q01DX001 (ip), vehicle: other 108 % of control | [1] 95 % of control

CCCCc1c(C)c2c(O)cc(C)cc2oc1=O
inactive: dose: 100.0 mg/kg/injection, schedule: Q01DX001 (ip), vehicle: acetone 92 % of control | dose: 200.0 mg/kg/injection, schedule: Q01DX001 (ip), vehicle: acetone 95 % of control | dose: 400.0 mg/kg/injection, schedule: Q01DX001 (ip), vehicle: acetone 92 % of control

O=C(NC(=S)N1CC=CCC1)c1ccccc1
inactive: dose: 100.0 mg/kg/injection, schedule: Q04DX002 (ip), vehicle: gum acacia 97 % of control | dose: 200.0 mg/kg/injection, schedule: Q04DX002 (ip), vehicle: gum acacia 100 % of control | dose: 400.0 mg/kg/injection, schedule: Q04DX002 (ip), vehicle: gum acacia 93 % of control

COc1ccc(C(O)c2nnc(C(O)c3ccc(OC)cc3)nn2)cc1 (stereo unspecified)
inactive: dose: 100.0 mg/kg/injection, schedule: Q01DX009 (ip), vehicle: saline with Tween-80 96 % of control | [2] 103 % of control | dose: 200.0 mg/kg/injection, schedule: Q01DX009 (ip), vehicle: saline with Tween-80 96 % of control | [3] 90 % of control | dose: 400.0 mg/kg/injection, schedule: Q01DX009 (ip), vehicle: saline with Tween-80 86 % of control | [4] 100 % of control

O=C(NC1C=CCCC1)NC1C=CCCC1 (stereo unspecified)
inactive: dose: 50.0 mg/kg/injection, schedule: Q01DX001 (ip), vehicle: other 88 % of control | dose: 100.0 mg/kg/injection, schedule: Q01DX001 (ip), vehicle: other 94 % of control | dose: 200.0 mg/kg/injection, schedule: Q01DX001 (ip), vehicle: other 97 % of control | dose: 400.0 mg/kg/injection, schedule: Q01DX001 (ip), vehicle: other 94 % of control

Cc1nc(N)[nH]c(=O)c1CCCNC(=O)c1cccc([N+](=O)[O-])c1
inactive: dose: 50.0 mg/kg/injection, schedule: Q01DX001 (ip), vehicle: Klucel (hydroxypropylcellulose) (HPC) 108 % of control | dose: 100.0 mg/kg/injection, schedule: Q01DX001 (ip), vehicle: Klucel (hydroxypropylcellulose) (HPC) 114 % of control

CCCCCCCCCCCS(=O)(=O)C(CCOS(C)(=O)=O)COS(C)(=O)=O (stereo unspecified)
inactive: [5] 93 % of control | dose: 100.0 mg/kg/injection, schedule: Q04DX003 (ip), vehicle: Klucel (hydroxypropylcellulose) (HPC) 100 % of control | [6] 95 % of control | dose: 200.0 mg/kg/injection, schedule: Q04DX003 (ip), vehicle: Klucel (hydroxypropylcellulose) (HPC) 98 % of control | dose: 400.0 mg/kg/injection, schedule: Q04DX003 (ip), vehicle: Klucel (hydroxypropylcellulose) (HPC) 96 % of control

COc1c(NC(=O)c2cccc(C(=O)Nc3cccc([N+](=O)[O-])c3OC)c2)cccc1[N+](=O)[O-]
inactive: [5] 96 % of control | [6] 89 % of control | dose: 400.0 mg/kg/injection, schedule: Q01DX009 (ip), vehicle: Klucel (hydroxypropylcellulose) (HPC) 92 % of control

Clc1ccc2c(c1)Cc1cc(N=Cc3ccccc3Cl)ccc1-2
inactive: dose: 12.5 mg/kg/injection, schedule: Q01DX001 (ip), vehicle: saline 97 % of control | dose: 12.5 mg/kg/injection, schedule: Q04DX003 (ip), vehicle: saline 92 % of control | dose: 25.0 mg/kg/injection, schedule: Q01DX001 (ip), vehicle: saline 87 % of control | dose: 25.0 mg/kg/injection, schedule: Q04DX003 (ip), vehicle: saline 93 % of control | dose: 50.0 mg/kg/injection, schedule: Q01DX001 (ip), vehicle: saline 106 % of control | dose: 50.0 mg/kg/injection, schedule: Q04DX003 (ip), vehicle: saline 87 % of control | dose: 65.0 mg/kg/injection, schedule: Q01DX Z (ip), vehicle: carboxymethylcellulose (CMC) 90 % of control | [1] 101 % of control | dose: 115.0 mg/kg/injection, schedule: Q04DX003 (ip), vehicle: saline 89 % of control | dose: 125.0 mg/kg/injection, schedule: Q01DX Z (ip), vehicle: carboxymethylcellulose (CMC) 96 % of control | dose: 170.0 mg/kg/injection, schedule: Q04DX003 (ip), vehicle: saline 103 % of control | dose: 200.0 mg/kg/injection, schedule: Q01DX001 (ip), vehicle: saline 89 % of control | dose: 250.0 mg/kg/injection, schedule: Q01DX Z (ip), vehicle: carboxymethylcellulose (CMC) 102 % of control | dose: 500.0 mg/kg/injection, schedule: Q01DX Z (ip), vehicle: carboxymethylcellulose (CMC) 102 % of control

O=C(Nc1ccc2oc(=O)c3ccccc3c2c1)C(Cl)Cl
inactive: dose: 15.0 mg/kg/injection, schedule: Q01DX015 (ip), vehicle: carboxymethylcellulose (CMC) 88 % of control | dose: 30.0 mg/kg/injection, schedule: Q01DX015 (ip), vehicle: carboxymethylcellulose (CMC) 88 % of control | dose: 60.0 mg/kg/injection, schedule: Q01DX015 (ip), vehicle: carboxymethylcellulose (CMC) 94 % of control | [7] 97 % of control | dose: 120.0 mg/kg/injection, schedule: Q01DX015 (ip), vehicle: carboxymethylcellulose (CMC) 93 % of control and 96 % of control | [8] 109 % of control | dose: 240.0 mg/kg/injection, schedule: Q01DX015 (ip), vehicle: carboxymethylcellulose (CMC) 98 % of control | [9] 103 % of control | dose: 480.0 mg/kg/injection, schedule: Q01DX015 (ip), vehicle: carboxymethylcellulose (CMC) 98 % of control

[N-]=[N+]=Nc1ccc(S(=O)(=O)Nc2ncccn2)cc1
inactive: [7] 113 % of control | dose: 100.0 mg/kg/injection, schedule: Q01DX009 (ip), vehicle: carboxymethylcellulose (CMC) 93 % of control | dose: 100.0 mg/kg/injection, schedule: Q04DX002 (ip), vehicle: carboxymethylcellulose (CMC) 100 % of control and 108 % of control | dose: 100.0 mg/kg/injection, schedule: Q04DX003 (ip), vehicle: carboxymethylcellulose (CMC) 104 % of control | [8] 108 % of control | dose: 200.0 mg/kg/injection, schedule: Q01DX009 (ip), vehicle: carboxymethylcellulose (CMC) 88 % of control | dose: 200.0 mg/kg/injection, schedule: Q04DX002 (ip), vehicle: carboxymethylcellulose (CMC) 102 % of control and 103 % of control | dose: 200.0 mg/kg/injection, schedule: Q04DX003 (ip), vehicle: carboxymethylcellulose (CMC) 96 % of control | [9] 90 % of control | dose: 400.0 mg/kg/injection, schedule: Q01DX009 (ip), vehicle: carboxymethylcellulose (CMC) 98 % of control | dose: 400.0 mg/kg/injection, schedule: Q04DX002 (ip), vehicle: carboxymethylcellulose (CMC) 103 % of control and 107 % of control | dose: 400.0 mg/kg/injection, schedule: Q04DX003 (ip), vehicle: carboxymethylcellulose (CMC) 110 % of control

O=S(=O)(c1ccccc1)N1CN2CN(C1)CN(S(=O)(=O)c1ccccc1)C2
inactive: [2] 103 % of control | [3] 106 % of control | [4] 89 % of control

Source: PubChem BioAssay AID248 (DTP/NCI, 2004)
